Where a SMILES comes first, the peptide text is derived from it.
Experiments:
protein phosphatase = experiment: Compound was evaluated for the Michaelis-Menten constant, Km in a generic protein phosphatase stopped assay system; assay type: ADME
[1] = Compound was evaluated for the Ki value for peptide alcohol for competitive inhibition in the presence of Mn2+ ions at pH 7.5; assay type: ADME

Row | Molecule | Km (protein phosphatase) [mM] | Ki [1] [µM]
1 | CC(=O)N[C@@H](CCCN=C(N)N)C(=O)N[C@@H](CCCN=C(N)N)C(=O)N[C@@H](C)C(=O)N[C@H](C(=O)N[C@H](C(=O)N[C@@H](C)C(=O)O)C(C)C)[C@@H](C)OP(=O)(O)O (HELM PEPTIDE1{[ac].R.R.A.[C[C@@H](OP(=O)(O)O)[C@H](N[*:1])C(=O)[*:2]].V.A}$$$$V2.0) | 3.7 | 1600
2 | H-RRATVA-OH | – | > 30000

From ChEMBL document CHEMBL1134186, “Protein phosphatase 1 catalyses the direct hydrolytic cleavage of phosphate monoester in a ternary complex mechanism” (Bioorg Med Chem Lett, 2001)
